Data taken from publication PMC9072872, “Structure-based design of nucleoside-derived analogues as sulfotransferase inhibitors” (RSC Advances, 2019).

How the values were obtained:
[1] = target: T1, TPST1 (Homo sapiens, UniProt O60507); assay: Microfluidic mobility shift sulfation assay, TPST1 (fluorescent CC4-tide substrate); assay type: biochemical; details: for IC50: read-out: IC50 against TPST1
T1 construct: Human TPST1 (residues Lys43-Leu360) enzyme was purified as a recombinant protein; made in house
T1 sequence (O60507 43-360): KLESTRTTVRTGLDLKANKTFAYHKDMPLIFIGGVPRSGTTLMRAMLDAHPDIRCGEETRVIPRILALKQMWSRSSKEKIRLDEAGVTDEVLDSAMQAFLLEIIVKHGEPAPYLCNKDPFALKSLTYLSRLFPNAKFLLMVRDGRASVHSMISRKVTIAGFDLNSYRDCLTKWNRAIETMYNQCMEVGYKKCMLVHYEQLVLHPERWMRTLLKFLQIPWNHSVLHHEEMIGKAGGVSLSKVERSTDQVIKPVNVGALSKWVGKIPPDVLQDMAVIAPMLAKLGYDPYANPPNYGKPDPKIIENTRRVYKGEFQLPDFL
Procedure: Compounds were initially screened at 400 μM in the presence 20 nM HS2ST and 0.1 μM TPST1 respectively.
Fig. 4 Summary of enzymatic inhibition assays against HS2ST and TPST1. (A) Enzymatic analysis of HS2ST1 inhibition by a panel of PAP- and PAPS-mimetic compounds. […] HS2ST sulfotransferase activity was assayed using a fluorescent hexasaccharide substrate (2 μM) and normalised to DMSO (4% v/v) or buffer control. Data shown is mean and SD of 4 repeat experiments. (B) Full dose–response curves for selected compounds. […] HS2ST activity calculated as previously described. Data from two independent experiments are combined. (C) Enzymatic analysis of TPST1 inhibition by a panel of PAP- and PAPS-mimetic compounds. […] TPST1 activity was measured using fluorescently-labelled CC4-tide (2 μM) and normalised to DMSO (4% v/v) or buffer control. (D) Full dose–response curves for selected compounds. […] TPST1 activity was measured using CC4-tide and normalised to DMSO or buffer controls as previously described. The data shown is from duplicate experiments. […]
TPST1 peptide substrate (CC4-tide, 5-FAM-EDFED YEFDG-CONH2) was synthesised using solid-phase Fmoc chemistry (Pepceuticals, Leicester, UK). All standard laboratory biochemicals, were purchased from Sigma, and were of the highest analytical quality.
(§1) 5'-phosphosulfate, lithium salt hydrate, PAP (adenosine 3',5'-diphosphate, disodium salt), CoA (coenzymeA, sodium salt), ATP (adenosine 5’-triphosphate, disodium salt hydrate) were all purchased from Sigma and stored at -80 °C to minimise degradation.
(§2) Recombinant Protein Production and SDS-PAGE
(§3) Human TPST1 (residues Lys43-Leu360) enzyme was purified as a recombinant protein containing an N-terminal 6xHis tag as previously described. […]
Microfluidics-Based Sulfation Assay
Non-radioactive microfluidic mobility shift peptide and carbohydrate sulfation assays were performed in solution with a 12-sipper chip coated with SR8 reagent and a Perkin Elmer EZ Reader II system 8 using an EDTA-based separation buffer and real-time kinetic evaluation of substrate sulfation. Pressure and voltage settings were adjusted manually to afford optimal separation of the sulfated product and non-sulfated substrate, with a sample (sip) volume of 20 nL, and total assay tim es appropriate for the experiment. The fluorophore tagged TPST1 peptide substrate and HS2ST1 glycan substrate where detected by the EZ Reader via LED-induced fluorescence.
Individual sulfation assays were assembled in a 384 well plate in a volume of 80 µL in the presence of […]
and 5 mM MgCl2. The degree of substrate sulfation was directly calculated using EZ Reader software by measuring the sulfo-product:non-sulfated substrate ratio at each time-point. The act ivity of the sulfotransferase enzymes in the presence of biochemicals and small molecule inhibitors was quantified in ‘kinetic mode’ by monitoring the amount of sulfated product generated over the assay time, relative to control assay with no additional inhibitor molecule (DMSO or buffer control). Data was normalized with respect to these control assays, with sulfate incorporation into the substr ate limited to ~ 20% to prevent depletion of PAPS and to ensure assay linearity. K m and IC50 values were determined by non-linear regression analysis with GraphPad Prism software. […]

[2] = target: T1, TPST1; assay: Immunoblot of GST-CC4tide tyrosine sulfation by TPST1 (anti-sulfotyrosine antibody); assay type: biochemical; details: compound 400 μM, GST-CC4-tide 1 μg, TPST1 0.2 μg, PAPS 5 μM, 15 min
Procedure: In order to further assess TPST1 inhibition by 2′-deoxy-PAP and compounds 1–14 using a complementary assay, immunoblotting of a TPST1 protein substrate (GST-CC4tide) was implemented with a monoclonal antibody that specifically recognises sulfotyrosine, using PAP as positive control (Fig. 5A). Compounds were screened at 400 μM in the assay. In common with the […] enzyme assay using a synthetic peptide, a broad range of inhibitory activities was observed.
Fig. 5 Immunological evaluation of TPST1 inhibition towards substrate and a Ser/Thr protein kinase counter-screen. (A) Immunoblots evaluating TPST1 sulfotransferase activity in the presence of a panel of PAP- and PAPS-mimetic compounds. […] After termination of the reaction using SDS-PAGE sample buffer, tyrosine sulfation was visualised by immunoblotting using a monoclonal sulfotyrosine antibody (top panel), with equal GST-CC4-tide and TPST1 loading confirmed using an antibody to detect 6xHis tagged proteins (bottom panel). (B) Enzymatic inhibition of PKA catalytic activity by a panel of PAP- and PAPS-mimetic compounds. PKA kinase (1 nM) was incubated with ATP (5 μM) in the presence of the appropriate nucleoside analogue (400 μM) for 30 min at 20 °C. PKA activity was calculated in real-time using fluorescently-labelled substrate peptide (2 μM) and normalised to DMSO (4% v/v) or buffer control.[77] Data in B is mean and SD of 3 individual experiments. Staurosporine is included at 40 μM as a generic inhibitor of kinase activity. […]
All standard laboratory biochemicals, were purchased from Sigma, and were of the highest analytical quality.
as §1, §2, §3
pMAL-c2x plasmid encoding an N-terminal Maltose Binding Protein (MBP) affinity tag.6 Glutathione-S-transferase (GST) tagged CC4-tide ([…]) was cloned into pOPINJ (OPPF-UK) and […]
affinity purified from BL21 (DE3) pLysS E. coli using Glutathione-Sepharose 4B (GE Healthcare). 5 For SDS-PAGE, proteins were denatured in Laemmli sample buffer, heated at 95 °C for 5 min and then analysed by SDS-PAGE with 10% (v/v) polyacrylamide gels. Gels were stained and de-stained using a standard Coomassie Brilliant Blue protocol. To evaluate protein sulfation by immunoblotting, standard western blotting procedures were followed using monoclonal anti-sulfotyrosine ant ibody clone o-1C-A2 (Millipore) generated using a phage display procedure and sulfotyrosine selection peptide antigens7 in the presence of appropriate positive and negative controls, and modifications visua lised using ECL […]
Data was normalized […]
with respect to these control assays, with sulfate incorporation into the substr ate limited to ~ 20% to prevent depletion of PAPS and to ensure assay linearity. K m and IC50 values were determined by non-linear regression analysis with GraphPad Prism software. […]

Row | Structure (SMILES) | IC50 [1] [µM] | suppression of tyrosine sulfation (immunoblot) [2] | inhibitory activity against TPST1 ([1]; compound 400 μM, TPST1 0.1 μM, PAPS 5 μM)
1 | Nc1ncnc2c1ncn2[C@H]1C[C@H](O)[C@@H](Cn2cc(P(=O)(O)OCc3ccccc3)nn2)O1 [Compound 13] | 100 to 300 | partial suppression | –
2 | Nc1ncnc2c1ncn2[C@H]1C[C@H](OP(=O)(O)O)[C@@H](COP(=O)(O)O)O1 [2′-deoxy-PAP] | 3.6 | complete suppression | –
3 | Nc1ncnc2c1ncn2[C@H]1C[C@H](OP(=O)(O)O)[C@@H](Cn2cc(P(=O)(O)O)nn2)O1 [Compound 12] | 100 to 300 | partial suppression | –
4 | Nc1ncnc2c1ncn2[C@H]1C[C@H](O)[C@@H](Cn2cc(P(=O)(O)O)nn2)O1 [Compound 11] | – | inactive | inactive
